PMC7545175 (Scientific Reports, 2020)
Read-outs that look alike come from different tables or passages of the source.

Tests used:
mu-opioid receptor (MOR) = mu-opioid receptor (MOR) (Homo sapiens, UniProt P35372); assay: FLIPR calcium assay in CHO-K1/MOR/Gα15 cells
BT-549 = assay: Cell viability assay (PrestoBlue, 72 h), BT-549; type: cell-based; conditions: Homo sapiens; for IC50: BT-549; for viability at 10 µM: BT-549, 72 h, mean of at least two determinations, within ± 15%, read-out: Survival rate at 10 uM BT-549
Protocol: (§1) The cells were seeded in 384-well clear plates with a density of 8 × 10^2 cells/well for MCF-10A and BT-549 cell lines, 1 × 10^3 cells/well for MDA-MB-453, and 2 × 10^3 cells/well for MDA-MB-231 overnight. Then cells were treated with the indicated concentrations of test compounds for 72 h. At the end of incubation, 5 μL of PrestoBlue Cell Viability Reagent (Invitrogen, Carlsbad, CA, USA) was added to each well with 50 μL medium. The plates were incubated for an additional 1.5 h at 37 °C in a humidified 5% CO2 atmosphere; the relative fluorescence unit (RFU) in the reaction mixture will then be recorded (Ex560/Em590) by Victor^2-Vplate reader (PerkinElmer, Waltham, MA, USA). The cell lines were chosen based on the mutation status of PTEN and/or TP53: MCF-10A, the nonmalignant mammary epithelial cell line; BT-549 with mutation of PTEN and TP53; MDA-MB-453 with mutation of PTEN; MDA-MB-231 with mutation of TP53[47].

MDA-MB-453 = assay: Cell viability assay (PrestoBlue, 72 h), MDA-MB-453; type: cell-based; conditions: Homo sapiens; for IC50: MDA-MB-453; for viability at 10 µM: MDA-MB-453, 72 h, mean of at least two determinations, within ± 15%, read-out: Survival rate at 10 uM MDA-MB-453
Protocol: as §1

[1] = tested on: MCF10A, a nonmalignant mammary epithelial cell line; assay: Cell viability assay (PrestoBlue, 72 h), MCF10A; type: cell-based; conditions: for MCF-10A Inhibition rate / Survival rate at 10 uM MCF10A: human, 72 h, 10 µM
Protocol: as §1

MDA-MB-231 = assay: Cell viability assay (PrestoBlue, 72 h), MDA-MB-231; type: cell-based, human; conditions: for IC50 / viability at 10 µM: Homo sapiens; for IC50: MDA-MB-231; for viability at 10 µM: MDA-MB-231, 72 h, mean of at least two determinations, within ± 15%, read-out: Survival rate at 10 uM MDA-MB-231; for Activity toward TNBC cell lines (in words): TNBC cell lines MDA-MB-231, BT-549, MDA-MB-453
Protocol: as §1

[2] = Figure 4B, read-out: BT-549 IC50
[3] = Figure 4B, read-out: MDA-MB-453 IC50
[4] = Figure 4B, read-out: MDA-MB-231 IC50
[5] = Figure 3C, unit inferred, read-out: IC50 values BT-549
[6] = Figure 3C, unit inferred, read-out: IC50 values MDA-MB-453
[7] = Figure 3C, unit inferred, read-out: IC50 values MDA-MB-231

Sequence of mu-opioid receptor (MOR) (P35372 whole entry): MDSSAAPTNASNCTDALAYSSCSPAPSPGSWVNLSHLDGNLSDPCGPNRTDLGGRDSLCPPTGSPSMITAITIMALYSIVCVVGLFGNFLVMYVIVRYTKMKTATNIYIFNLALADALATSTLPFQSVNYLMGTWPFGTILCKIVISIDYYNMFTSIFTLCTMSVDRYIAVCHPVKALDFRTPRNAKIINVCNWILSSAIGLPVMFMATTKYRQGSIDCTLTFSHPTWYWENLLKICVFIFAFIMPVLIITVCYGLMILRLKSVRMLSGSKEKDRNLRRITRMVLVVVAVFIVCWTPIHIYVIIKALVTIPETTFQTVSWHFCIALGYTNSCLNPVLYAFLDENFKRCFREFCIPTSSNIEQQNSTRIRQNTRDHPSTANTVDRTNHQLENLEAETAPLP

Row | EC50 (mu-opioid receptor (MOR)) | SMILES | IC50 (BT-549; [2]) | IC50 (MDA-MB-453; [3]) | MCF-10A Inhibition rate [1] | IC50 (MDA-MB-231; [4]) | viability at 10 µM (BT-549) | viability at 10 µM (MDA-MB-453) | Cytotoxicity to MCF10A (in words) [1] | Survival rate at 10 uM MCF10A [1] | viability at 10 µM (MDA-MB-231) | IC50 (BT-549; [5]) | IC50 (MDA-MB-453; [6]) | IC50 (MDA-MB-231; [7]) | Activity toward TNBC cell lines (in words) (MDA-MB-231)
1 | 6.12 µM | Cc1ccc2c(Cl)c(C(=O)NCC(c3ccccc3Cl)N(C)C)sc2c1 (stereo not drawn) [Compound 25] |  |  |  |  |  |  |  |  |  |  |  |  | 
2 |  | Cc1ccc(-c2csc(NC(=O)c3ccsc3)n2)c(C)c1 [Compound 19] | > 10 µM | > 10 µM | 14% | 2.68 µM |  |  |  |  |  |  |  |  | 
3 |  | Cc1cccc(C(=O)Nc2nc(-c3cc(C)ccc3C)cs2)c1 [Compound 9] |  |  |  |  | 79% | 54% | low cytotoxicity | 105% | 51% |  |  |  | 
4 |  | O=C(c1ccc(Oc2ccc([N+](=O)[O-])cc2)cc1)c1ccc(Oc2ccc([N+](=O)[O-])cc2)cc1 [Compound 8] |  |  |  |  | 88% | 47% |  |  | 22% | > 20 µM | > 20 µM | 10.7 µM | broader TNBC inhibitions
5 |  | O=C(Nc1ncc(-c2ccncc2)s1)c1ccc(F)cc1 [Compound 22] | > 10 µM | > 10 µM | -5% | > 10 µM |  |  |  |  |  |  |  |  | did not show activities
6 |  | Cc1cc(C)c(C)c(-c2csc(NC(=O)c3cc([N+](=O)[O-])cc([N+](=O)[O-])c3)n2)c1C [Compound 10] |  |  |  |  | 52% | 25% |  |  | 21% | 7.68 µM | > 20 µM | 8.4 µM | broader TNBC inhibitions
7 |  | CCN(C(=O)c1sc(NC(=O)CCl)c(C#N)c1C)C1CCCCC1 [Compound 5] |  |  |  |  | 10% | -16% | low cytotoxicity | 16% | -12% |  |  |  | 
8 |  | O=C(N/N=C/c1ccccc1Cl)c1[nH]c2ccc(Cl)cc2c1-c1ccccc1 [Compound 1] |  |  |  |  | 12% | 17% | low cytotoxicity | -7% | 36% |  |  |  | 
9 |  | Cc1cc(C)c(-c2csc(NC(=O)c3ccc(Br)cc3)n2)c(C)c1 [Compound 3] |  |  |  |  | 101% | 21% | low cytotoxicity | 44% | -14% | > 20 µM | 5.19 µM | 1.49 µM | broader TNBC inhibitions
10 |  | COc1ccc(C(=O)Nc2ncc(-c3ccncc3)s2)cc1 [Compound 23] | 2.6 µM | 7.93 µM | 35% | 3.98 µM |  |  | exhibited cytotoxicity |  |  |  |  |  | moderate micro molar activities
11 |  | Cc1ccc(-c2csc(NC(=O)c3cc(C)on3)n2)c(C)c1 [Compound 20] | > 10 µM | > 10 µM | 14% | > 10 µM |  |  |  |  |  |  |  |  | 
12 |  | O=C(N/N=C/c1ccc(Br)cc1)c1cc2ccccc2[nH]1 [Compound 11] |  |  |  |  | 26% | 29% | low cytotoxicity | 18% | 56% |  |  |  | 
